These results are taken from PubChem BioAssay (NCI).

Each structure is given as a SMILES string.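 Compound exposure: 48 hours, 5 concentrations, 96-well plates. TGI is the concentration that stops growth completely.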

Assay in all cases: growth of human tumour cells (NCI), 48 h
Experiment [1] deals with SW-620 colon.
The test system of experiment [2] is RXF 393 renal.
The subject of experiment [3] is A549 NSCLC.
The test system of experiment [4] is OVCAR-8 ovarian.
In experiment [5] the test system is M14 melanoma.
Experiment [6] has as its system IGROV1 ovarian.
Experiment [7] relates to KM12 colon.
The test system of experiment [8] is NCI/ADR-RES ovarian.
In experiment [9] the test system is SNB-75 CNS.
Experiment [10] relates to U251 CNS.
Experiment [11] relates to SK-MEL-2 melanoma.
The subject of experiment [12] is HCT-116 colon.
Experiment [13] relates to UACC-62 melanoma.
Experiment [14] concerns HL-60(TB) leukemia.
The subject of experiment [15] is PC-3 prostate.
The test system of experiment [16] is SF-539 CNS.
For experiment [17], the system named is T-47D breast.
The subject of experiment [18] is NCI-H226 lung.

Turning to `COc1cc(/C=C2\N=C(c3ccccc3)N(c3nc4cc(C)c(C)cc4s3)C2=O)cc(OC)c1OC`, the TGI in [1] was greater than 100 µM; in [2], 65.2 µM; in experiment [3], greater than 100 µM; in experiment [4], 47.6 µM; in [5], greater than 100 µM; in experiment [6], greater than 100 µM. Moreover, the TGI in experiment [7] is 71.2 µM; in experiment [8], greater than 100 µM; in [9], 60 µM; in experiment [10], 66.1 µM; in experiment [11], greater than 100 µM; in experiment [12], 50.4 µM. Besides, the TGI in experiment [13] is greater than 100 µM; in [14], 39.7 µM; in experiment [15], greater than 100 µM; in experiment [16] it was 51.4 µM; in experiment [17], greater than 100 µM.
Consider `Cc1ccc(C(=O)OC(C)C)cc1N=NN(C)C`, for which the TGI in [1], in experiment [3], in [4], in experiment [5], in experiment [6] and in [7] was greater than 100 µM in each case. The TGI in experiment [8], in experiment [10], in experiment [11], in experiment [12], in experiment [13] and in [14] was greater than 100 µM throughout. The TGI in [15], in experiment [16] and in experiment [17] was greater than 100 µM throughout.
In the case of `COc1cccc(CCn2c(N)c(C(=O)O)c3ccc([N+](=O)[O-])cc3c2=O)c1`, the TGI in experiment [1], in [2], in experiment [3], in experiment [4], in [5] and in experiment [6] was greater than 100 µM each time. The TGI is 89.7 µM in experiment [8]; 90.3 µM in experiment [9]; greater than 100 µM in experiment [10]; 68.3 µM in [11]; greater than 100 µM in experiment [12]; greater than 100 µM in experiment [18]. Also, the TGI in [13], in [14], in [15] and in experiment [17] was greater than 100 µM throughout.
Consider `COc1cc(/C=C/C=C2\CCC/C(=C\C=C\c3ccc(O)c(OC)c3)C2=O)ccc1O`, for which the TGI in experiment [1] is 51.1 µM; in [2] it was 41.7 µM; in [3], 26.8 µM; in experiment [4] it was 72.3 µM; in [5] it was greater than 100 µM; in experiment [6] it was 74.7 µM. Moreover, the TGI in experiment [7] was 97.4 µM; in [8], 48.8 µM; in experiment [9] it was greater than 100 µM; in experiment [10] it was greater than 100 µM; in experiment [11], 87.5 µM; in experiment [12], 49 µM. In addition, the TGI in experiment [13] is 31.6 µM; in experiment [14], greater than 100 µM; in experiment [15], 38.2 µM; in experiment [16] it was 45.9 µM; in experiment [17], 36.7 µM.
For `COC(=O)/C=C\[C@@H]1[C@H](C)N1S(=O)(=O)c1ccc(C)cc1` (stereo partly specified), the TGI in [1], in [2], in experiment [3], in [4], in experiment [5] and in experiment [6] was greater than 100 µM in each case. The TGI in experiment [8], in [10], in [11], in [12], in [18] and in experiment [13] was greater than 100 µM throughout. Moreover, the TGI in experiment [14], in experiment [15], in [16] and in [17] was greater than 100 µM each time.
Turning to `CC(=O)/C(N=Nc1ccc(-n2c(C)nc3ccc(Br)cc3c2=O)cc1)=C(/C)O`, the TGI in experiment [1], in experiment [3], in [4], in experiment [5], in experiment [6] and in experiment [7] was greater than 100 µM each time. The TGI is greater than 100 µM in experiment [8]; 77 µM in [9]; greater than 100 µM in [10]; greater than 100 µM in [11]; greater than 100 µM in [12]; greater than 100 µM in [18]. The TGI in experiment [13], in [14], in [15], in [16] and in experiment [17] was greater than 100 µM throughout.
Take `CC(=O)c1cccc(Nc2c3ccccc3nc3occc23)c1`: the TGI in experiment [2] is 6.73 µM; in experiment [3], greater than 100 µM; in [4], greater than 100 µM; in experiment [5], 24.4 µM; in experiment [6], 9.58 µM; in experiment [7], 52.6 µM. The TGI in experiment [8] is 6.47 µM; in experiment [10] it was greater than 100 µM; in experiment [11] it was 11.4 µM; in experiment [12], 18.4 µM; in experiment [18], greater than 100 µM; in [13] it was 27.7 µM. Moreover, the TGI in experiment [14] is 12.4 µM; in experiment [15], greater than 100 µM; in [16] it was 7.63 µM; in [17], 28 µM.
`CCN(CC)CCSc1n[nH]c(-c2c[nH]c3nc(C)ccc3c2=O)n1`: the TGI in experiment [1], in experiment [2], in [3], in [4], in experiment [5] and in [6] was greater than 100 µM throughout. Also, the TGI in experiment [7], in experiment [8], in experiment [10], in [11], in experiment [12] and in experiment [18] was greater than 100 µM in each case. The TGI in [13], in experiment [14], in experiment [15] and in experiment [17] was greater than 100 µM throughout.
As to `O=C1NC(=O)[C@@H](OCC2CCCCC2)[C@@H]2OCC3OC(C(O)C3O)C12` (stereo partly specified), the TGI in experiment [1], in experiment [2], in experiment [3], in experiment [4], in experiment [5] and in [6] was greater than 100 µM each time. In addition, the TGI in experiment [7], in experiment [8], in [11], in experiment [12], in experiment [18] and in experiment [13] was greater than 100 µM in each case. Further, the TGI in experiment [14], in [15], in experiment [16] and in experiment [17] was greater than 100 µM each time.
